Target: T1, BCR-NTRK1 BaF3 cells (Homo sapiens, UniProt P04629)
T1 construct: fused on or other part: P11274 (Breakpoint cluster region protein)
Assay: BaF3 BCR-NTRK1 cell proliferation assay (ATPlite)
Type: cell-based
Details: read-out: Inhibition of Cell Proliferation IC50, BCR/BaF3 TrkA
In short: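 ATP-based luminescence (ATPlite), read after 10 min at room temperature, served as a proxy for cell number, and IC50 was fitted against compound concentration. Before that, cells were treated for 3 days with an 8-point 1:3 dilution series starting at 10 μM. BaF3 cells were plated at 10,000/well without IL-3, and MV-4-11 cells at 25,000/well.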

T1 sequence (P04629 510-781): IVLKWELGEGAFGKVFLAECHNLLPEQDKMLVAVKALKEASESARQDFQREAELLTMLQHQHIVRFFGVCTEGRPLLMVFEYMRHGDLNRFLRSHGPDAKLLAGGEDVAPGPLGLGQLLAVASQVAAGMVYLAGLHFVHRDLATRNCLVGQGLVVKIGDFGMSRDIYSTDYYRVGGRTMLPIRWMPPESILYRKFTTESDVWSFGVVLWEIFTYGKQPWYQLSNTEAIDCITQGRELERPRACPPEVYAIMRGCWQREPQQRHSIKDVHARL

| SMILES | IC50 [nM] |
| --- | --- |
| Clc1cnc2[nH]cc(Cc3cnc(NC4CCCCC4)nc3)c2c1 [Compound P-3001, [5-(5-chloro-1H-pyrrolo[2,3-b]pyridin-3-ylmethyl)-pyrimidin-2-yl]-cyclohexyl-amine] | > 10000 |
| Clc1cnc2[nH]cc(Cc3cnc(NC4CC4)nc3)c2c1 [Compound P-3005, [5-(5-Chloro-1H-pyrrolo[2,3-b]pyridin-3-ylmethyl)-pyrimidin-2-yl]-cyclopropyl-amine] | > 10000 |
| Clc1cnc2[nH]cc(Cc3cnc(NC4CCCCCC4)nc3)c2c1 [Compound P-3006, [5-(5-Chloro-1H-pyrrolo[2,3-b]pyridin-3-ylmethyl)-pyrimidin-2-yl]-cycloheptyl-amine] | < 20000 |
| Cc1cnc2[nH]cc(Cc3cnc(Nc4ccc(C(F)(F)F)nc4)nc3)c2c1 [Compound P-3018, [5-(5-Methyl-1H-pyrrolo[2,3-b]pyridin-3-ylmethyl)-pyrimidin-2-yl]-(6-trifluoromethyl-pyridin-3-yl)-amine] | < 1000 |
| COc1ccc(Nc2ccc(Cc3c[nH]c4ncc(C)cc34)c(F)n2)cn1 [Compound P-3019, [6-fluoro-5-(5-methyl-1H-pyrrolo[2,3-b]pyridin-3-ylmethyl)-pyridin-2-yl]-(6-methoxy-pyridin-3-yl)-amine] | < 100 |
| COc1ccc(Nc2ncc(Cc3c[nH]c4ncc(C)cc34)cn2)cc1 [Compound P-3021, (4-Methoxy-phenyl)-[5-(5-methyl-1H-pyrrolo[2,3-b]pyridin-3-ylmethyl)-pyrimidin-2-yl]-amine] | < 1000 |
| COc1ccc(Nc2ncc(Cc3c[nH]c4ncc(C)cc34)cn2)cc1F [Compound P-3023, (3-Fluoro-4-methoxy-phenyl)-[5-(5-methyl-1H-pyrrolo[2,3-b]pyridin-3-ylmethyl)-pyrimidin-2-yl]-amine] | < 1000 |
| CCCOc1ccc(Nc2ncc(Cc3c[nH]c4ncc(C)cc34)cn2)cc1 [Compound P-3024, [5-(5-Methyl-1H-pyrrolo[2,3-b]pyridin-3-ylmethyl)-pyrimidin-2-yl]-(4-propoxy-phenyl)-amine] | < 1000 |
| CCc1ccc(Nc2ncc(Cc3c[nH]c4ncc(C)cc34)cn2)cc1 [Compound P-3025, (4-Ethyl-phenyl)-[5-(5-methyl-1H-pyrrolo[2,3-b]pyridin-3-ylmethyl)-pyrimidin-2-yl]-amine] | < 10 |
| Cc1cnc2[nH]cc(Cc3cnc(Nc4cc(-c5ccc(F)cc5)n[nH]4)nc3)c2c1 [Compound P-3028, [5-(4-Fluoro-phenyl)-2H-pyrazol-3-yl]-[5-(5-methyl-1H-pyrrolo[2,3-b]pyridin-3-ylmethyl)-pyrimidin-2-yl]-amine] | < 100 |
| Cc1cnc2[nH]cc(Cc3cnc(Nc4cc(C(C)(C)C)n[nH]4)nc3)c2c1 [Compound P-3029, (5-tert-Butyl-2H-pyrazol-3-yl)-[5-(5-methyl-1H-pyrrolo[2,3-b]pyridin-3-ylmethyl)-pyrimidin-2-yl]-amine] | > 1000 |
| Cc1cnc2[nH]cc(Cc3cnc(Nc4ccc(C(C)(C)C)cc4)nc3)c2c1 [Compound P-3030, (4-tert-Butyl-phenyl)-[5-(5-methyl-1H-pyrrolo[2,3-b]pyridin-3-ylmethyl)-pyrimidin-2-yl]-amine amine] | < 10 |
| Cc1cnc2[nH]cc(Cc3cnc(Nc4ccc(C(O)(C(F)(F)F)C(F)(F)F)cc4)nc3)c2c1 [Compound P-3031, 1,1,1,3,3,3-Hexafluoro-2-{4-[5-(5-methyl-1H-pyrrolo[2,3-b]pyridin-3-ylmethyl)-pyrimidin-2-ylamino]-phenyl}-propan-2-ol] | < 10 |
| Cc1cnc2[nH]cc(Cc3cnc(Nc4cc(C5CC5)n[nH]4)nc3)c2c1 [Compound P-3032, (5-Cyclopropyl-2H-pyrazol-3-yl)-[5-(5-methyl-1H-pyrrolo[2,3-b]pyridin-3-ylmethyl)-pyrimidin-2-yl]-amine] | < 1000 |
| CSc1ccc(Nc2ncc(Cc3c[nH]c4ncc(C)cc34)cn2)cc1 [Compound P-3033, [5-(5-Methyl-1H-pyrrolo[2,3-b]pyridin-3-ylmethyl)-pyrimidin-2-yl]-(4-methylsulfanyl-phenyl)-amine] | < 100 |
| CCn1ccc(Nc2ncc(Cc3c[nH]c4ncc(C)cc34)cn2)n1 [Compound P-3035, (1-Ethyl-1H-pyrazol-3-yl)-[5-(5-methyl-1H-pyrrolo[2,3-b]pyridin-3-ylmethyl)-pyrimidin-2-yl]-amine] | < 1000 |
| CCn1cc(Nc2ncc(Cc3c[nH]c4ncc(C)cc34)cn2)cn1 [Compound P-3036, (1-Ethyl-1H-pyrazol-4-yl)-[5-(5-methyl-1H-pyrrolo[2,3-b]pyridin-3-ylmethyl)-pyrimidin-2-yl]-amine] | < 1000 |
| Cc1cnc2[nH]cc(Cc3cnc(Nc4cc(C(F)(F)F)n[nH]4)nc3)c2c1 [Compound P-3037, [5-(5-Methyl-1H-pyrrolo[2,3-b]pyridin-3-ylmethyl)-pyrimidin-2-yl]-(5-trifluoromethyl-2H-pyrazol-3-yl)-amine] | > 1000 |
| Cc1cnc2[nH]cc(Cc3ccc(Nc4ccc(C)nc4)nc3F)c2c1 [Compound P-3041, [6-Fluoro-5-(5-methyl-1H-pyrrolo[2,3-b]pyridin-3-ylmethyl)-pyridin-2-yl]-(6-methyl-pyridin-3-yl)-amine] | < 1000 |
| Cc1ccc(Nc2ccc(Cc3c[nH]c4ncc(Cl)cc34)c(F)n2)cn1 [Compound P-3042, [5-(5-Chloro-1H-pyrrolo[2,3-b]pyridin-3-ylmethyl)-6-fluoro-pyridin-2-yl]-(6-methyl-pyridin-3-yl)-amine] | < 1000 |
| Cc1ccc(Nc2ccc(C(=O)c3c[nH]c4ncc(Cl)cc34)c(F)n2)cn1 [Compound P-3044, (5-Chloro-1H-pyrrolo[2,3-b]pyridin-3-yl)-[2-fluoro-6-(6-methyl-pyridin-3-ylamino)-pyridin-3-yl]-methanone] | < 1000 |
| CCc1ccc(Nc2ccc(Cc3c[nH]c4ncc(C)cc34)c(F)n2)cn1 [Compound P-3048, (6-Ethyl-pyridin-3-yl)-[6-fluoro-5-(5-methyl-1H-pyrrolo[2,3-b]pyridin-3-ylmethyl)-pyridin-2-yl]-amine] | < 100 |
| CCc1ccc(Nc2ccc(C(=O)c3c[nH]c4ncc(C)cc34)c(F)n2)cn1 [Compound P-3049, [6-(6-Ethyl-pyridin-3-ylamino)-2-fluoro-pyridin-3-yl]-(5-methyl-1H-pyrrolo[2,3-b]pyridin-3-yl)-methanone] | < 10 |
| Cc1cnc2[nH]cc(Cc3ccc(Nc4ccc(C5CC5)nc4)nc3F)c2c1 [Compound P-3050, (6-Cyclopropyl-pyridin-3-yl)-[6-fluoro-5-(5-methyl-1H-pyrrolo[2,3-b]pyridin-3-ylmethyl)-pyridin-2-yl]-amine] | < 100 |

Now from value to compound:

| IC50 [nM] | SMILES |
| --- | --- |
| < 10000 | FC1(F)CCC(Nc2ncc(Cc3c[nH]c4ncc(Cl)cc34)cn2)CC1 [Compound P-3004] |
| > 10000 | COc1ccccc1Nc1ncc(Cc2c[nH]c3ncc(Cl)cc23)cn1 [Compound P-3016, [5-(5-Chloro-1H-pyrrolo[2,3-b]pyridin-3-ylmethyl)-pyrimidin-2-yl]-(2-methoxy-phenyl)-amine] |
| > 10000 | Fc1cccc(Nc2ncc(Cc3c[nH]c4ncc(Cl)cc34)cn2)c1 [Compound P-3017, [5-(5-Chloro-1H-pyrrolo[2,3-b]pyridin-3-ylmethyl)-pyrimidin-2-yl]-(3-fluoro-phenyl)-amine] |
| < 100 | COc1ccc(Nc2ncc(Cc3c[nH]c4ncc(C)cc34)cn2)cn1 [Compound P-3020, (6-Methoxy-pyridin-3-yl)-[5-(5-methyl-1H-pyrrolo[2,3-b]pyridin-3-ylmethyl)-pyrimidin-2-yl]-amine] |
| < 1000 | COc1cc(Nc2ncc(Cc3c[nH]c4ncc(C)cc34)cn2)ccc1F [Compound P-3022, (4-Fluoro-3-methoxy-phenyl)-[5-(5-methyl-1H-pyrrolo[2,3-b]pyridin-3-ylmethyl)-pyrimidin-2-yl]-amine] |
| < 100 | CCOc1ccc(Nc2ncc(Cc3c[nH]c4ncc(C)cc34)cn2)cc1 [Compound P-3026, (4-Ethoxy-phenyl)-[5-(5-methyl-1H-pyrrolo[2,3-b]pyridin-3-ylmethyl)-pyrimidin-2-yl]-amine] |
| < 100 | CCOc1ccc(Nc2ncc(Cc3c[nH]c4ncc(C)cc34)cn2)cn1 [Compound P-3027, (6-Ethoxy-pyridin-3-yl)-[5-(5-methyl-1H-pyrrolo[2,3-b]pyridin-3-ylmethyl)-pyrimidin-2-yl]-amine] |
| < 100 | Cc1cnc2[nH]cc(Cc3cnc(Nc4ccc(S(C)(=O)=O)cc4)nc3)c2c1 [Compound P-3034, (4-Methanesulfonyl-phenyl)-[5-(5-methyl-1H-pyrrolo[2,3-b]pyridin-3-ylmethyl)-pyrimidin-2-yl]-amine] |
| < 1000 | Cc1cnc2[nH]cc(Cc3cnc(Nc4cc(OC(C)C)n[nH]4)nc3)c2c1 [Compound P-3038, (5-Isopropoxy-2H-pyrazol-3-yl)-[5-(5-methyl-1H-pyrrolo[2,3-b]pyridin-3-ylmethyl)-pyrimidin-2-yl]-amine] |
| < 1000 | CCOc1ccc(Nc2ccc(Cc3c[nH]c4ncc(C)cc34)c(F)n2)cn1 [Compound P-3039, (6-ethoxy-pyridin-3-yl)-[6-fluoro-5-(5-methyl-1H-pyrrolo[2,3-b]pyridin-3-ylmethyl)-pyridin-2-yl]-amine] |
| < 100 | COc1ccc(Nc2ccc(C(=O)c3c[nH]c4ncc(C)cc34)c(F)n2)cn1 [Compound P-3040, [2-Fluoro-6-(6-methoxy-pyridin-3-ylamino)-pyridin-3-yl]-(5-methyl-1H-pyrrolo[2,3-b]pyridin-3-yl)-methanone] |
| < 100 | Cc1cnc2[nH]cc(C(=O)c3ccc(Nc4ccc(C)nc4)nc3F)c2c1 [Compound P-3043, [2-Fluoro-6-(6-methyl-pyridin-3-ylamino)-pyridin-3-yl]-(5-methyl-1H-pyrrolo[2,3-b]pyridin-3-yl)-methanone] |
| < 100 | CCOc1ccc(Nc2ccc(C(=O)c3c[nH]c4ncc(C)cc34)c(F)n2)cn1 [Compound P-3045, [6-(6-ethoxy-pyridin-3-ylamino)-2-fluoro-pyridin-3-yl]-(5-methyl-1H-pyrrolo[2,3-b]pyridin-3-yl)-methanone] |
